Assay results from PubChem BioAssay (NCI).
“And” between values parts separate entries of the source, which are not always exact repeats. Equal entries are not always repeated.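 1) Cells in 96-well plates. 2) Compound, 48 h, 5 concentrations. 3) Linear interpolation between surrounding doses. 4) Unreached endpoint = highest concentration. At the GI50, growth is halved. TGI is the concentration that stops growth completely.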

Tests used:
Experiment in all cases: NCI tumour cell line growth inhibition, 48 h
HCT-15 colon = test system: HCT-15 colon
SF-539 CNS = test system: SF-539 CNS
HT29 colon = test system: HT29 colon
OVCAR-4 ovarian = test system: OVCAR-4 ovarian
U251 CNS = test system: U251 CNS
OVCAR-3 ovarian = test system: OVCAR-3 ovarian
T-47D breast = test system: T-47D breast
SK-MEL-2 melanoma = test system: SK-MEL-2 melanoma
HS 578T breast = test system: HS 578T breast
SNB-75 CNS = test system: SNB-75 CNS

Compound | GI50 (HCT-15 colon) | TGI (HCT-15 colon) | GI50 (SF-539 CNS) | TGI (SF-539 CNS) | GI50 (HT29 colon) | TGI (HT29 colon) | GI50 (OVCAR-4 ovarian) | TGI (OVCAR-4 ovarian) | GI50 (U251 CNS) | TGI (U251 CNS) | GI50 (OVCAR-3 ovarian) | TGI (OVCAR-3 ovarian) | GI50 (T-47D breast) | TGI (T-47D breast) | GI50 (SK-MEL-2 melanoma) | TGI (SK-MEL-2 melanoma) | TGI (HS 578T breast) | GI50 (SNB-75 CNS) | TGI (SNB-75 CNS) | GI50 (HS 578T breast)
N[C@@H](Cc1ccc(N(CCCl)CCCl)cc1)C(=O)O | 19.4 µM and 21 µM | > 100 µM and 54.9 µM and 133 µM | 6.03 µM and 4.36 µM | 49.6 µM and 8.61 µM and 53.8 µM | 54.2 µM and 42.3 µM | > 100 µM and 235 µM | 32.1 µM and 18.6 µM | > 100 µM and 48.2 µM and 84.3 µM | 16.1 µM and 11.9 µM | > 100 µM and 31.7 µM and 121 µM | 22.5 µM and 10.4 µM | 55.3 µM and 26.3 µM and 105 µM | 34.3 µM | > 100 µM and 116 µM | 17.4 µM | 33.5 µM and 112 µM | > 100 µM and 165 µM | 16.3 µM and 14.4 µM | 95.9 µM and > 51.6 µM and 123 µM | –
Nc1ncnc2c1c(-c1ccc(Oc3ccccc3)cc1)nn2C[C@H]1SSC[C@H]1O | 0.201 µM | 2.29 µM | 0.441 µM | 5.97 µM | 0.179 µM | 1.48 µM | 1.15 µM | > 100 µM | 1.2 µM | 4.27 µM | 0.188 µM | 0.421 µM | 0.205 µM | 0.518 µM | 0.16 µM | 0.435 µM | 8.7 µM | 2.88 µM | > 24 µM | 1.88 µM
O=C(/C=C/c1ccco1)c1cccc(Nc2nc(Nc3ccccc3)nc(Nc3ccccc3)n2)c1 | 5.12 µM | > 100 µM | 44.5 µM | > 100 µM | 17.2 µM | > 100 µM | 10.6 µM | > 100 µM | 16 µM | > 100 µM | 2.83 µM | 27.1 µM | 3.61 µM | > 100 µM | 20.5 µM | > 100 µM | > 82.7 µM | 2.16 µM | > 69.5 µM | 12.6 µM
COc1cccc(-c2nn(C)c3sc(C(=O)NCCN4CCN(c5ccccc5F)CC4)cc23)c1 | 3.18 µM | 15.5 µM | 9.45 µM | > 100 µM | 4.66 µM | 51.3 µM | 19.1 µM | > 100 µM | 7.14 µM | 59.5 µM | 20.6 µM | > 100 µM | 4.32 µM | > 100 µM | 33.9 µM | > 100 µM | > 100 µM | 3.59 µM | 95.3 µM | 26.2 µM
COc1cc(Cl)c(C)cc1NC(=O)c1cc2ccccc2cc1O | 2.5 µM | 13.4 µM | 2.81 µM | 10.4 µM | 2.88 µM | 8.34 µM | 3.28 µM | 18.5 µM | 2.2 µM | 10.5 µM | 1.86 µM | 7.09 µM | 2.07 µM | 11.7 µM | 1.7 µM | 4.01 µM | 7.35 µM | 2.4 µM | 9.37 µM | 2.1 µM
O=C1COCCN1c1ccc(NCc2cn(Cc3ccc(F)cc3)c3ccccc23)cc1 | 4.13 µM | 31 µM | 7.36 µM | 33.1 µM | 1.67 µM | > 100 µM | 0.173 µM | 3 µM | 0.645 µM | 38.5 µM | 0.313 µM | 2.96 µM | 0.0522 µM | – | 0.779 µM | 6.06 µM | 44.1 µM | 2.03 µM | 13 µM | 3.41 µM
COc1ccc2nc3c(cc2c1)C(=O)CC(C(F)(F)F)C3 (configuration not stated) | 1.28 µM | > 100 µM | 1.74 µM | 5.64 µM | 0.433 µM | > 100 µM | 27 µM | > 100 µM | 5.82 µM | > 100 µM | 1.65 µM | 6.89 µM | 3.7 µM | > 100 µM | 0.847 µM | > 100 µM | > 100 µM | 1.04 µM | > 100 µM | 2.19 µM
COc1ccc(-n2cc(-c3ccc(F)cc3)[nH]c2=O)cc1OC | > 100 µM | > 100 µM | 82.2 µM | > 100 µM | > 100 µM | > 100 µM | > 100 µM | > 100 µM | > 100 µM | > 100 µM | > 100 µM | > 100 µM | > 100 µM | > 100 µM | > 100 µM | > 100 µM | > 100 µM | > 100 µM | > 100 µM | 98.9 µM
COc1ccc(/C=C/c2cnnc3ccccc23)cc1OC | – | > 10 µM | – | > 10 µM | – | > 10 µM | – | > 10 µM | – | > 10 µM | – | > 10 µM | – | > 10 µM | – | > 10 µM | > 10 µM | – | > 10 µM | –
O=c1c(-c2nc3ccccc3[nH]2)cc2ccccc2n1Cc1cn(Cc2ccc(F)cc2)nn1 | 0.399 µM | > 50.9 µM | 0.137 µM | 0.636 µM | 0.041 µM | 96.9 µM | 1.35 µM | > 100 µM | 0.161 µM | 12.4 µM | 0.15 µM | 0.911 µM | 0.206 µM | > 100 µM | 0.348 µM | 10.2 µM | 1.18 µM | < 0.0149 µM | 0.113 µM | 0.0546 µM
COc1cc(-c2cc(C(=O)N3CCN(C(=O)c4ccccc4NCc4cccs4)CC3)nc3cc(-c4ccccc4)nn23)cc(OC)c1OC | 4.43 µM | > 100 µM | 9.85 µM | > 100 µM | 3.78 µM | 15 µM | 5.55 µM | > 100 µM | 5.76 µM | > 100 µM | 3.03 µM | 11.3 µM | 8.38 µM | > 100 µM | 3.73 µM | 15.6 µM | > 100 µM | 3.32 µM | 27.6 µM | 36.2 µM
NC(CSC(c1ccccc1)(c1ccccc1)c1ccc(Br)cc1)C(=O)O (configuration not stated) | 0.258 µM | > 82 µM | 0.11 µM | 13.5 µM | 0.399 µM | > 54.9 µM | 19.9 µM | > 100 µM | 0.0798 µM | 25.5 µM | 0.0942 µM | 0.412 µM | 0.345 µM | > 100 µM | 14.5 µM | > 78.2 µM | 0.219 µM | 0.729 µM | > 50.8 µM | 0.0621 µM
COc1nc(C(Cl)(Cl)Cl)c(Cl)c(OC)c1Cl | – | 75.6 µM | > 52 µM | > 86.8 µM and 77.2 µM | > 57 µM | 96.5 µM | > 52.1 µM | 99.9 µM and 66.3 µM | – | 69.9 µM | > 43.4 µM | > 61.1 µM and 72.6 µM | – | 77.6 µM | – | > 31.6 µM and 70.8 µM | 75.5 µM | – | 55.6 µM | –
